± gives the expanded uncertainty stated by the source.
Experiment: molar heat capacity at constant pressure
Conditions: 101.33 kPa

## CCC[n+]1ccn(C)c1.[Br-] [1-methyl-3-propylimidazolium bromide]
244.42 K, Liquid, Small (less than 1 g) adiabatic calorimetry
  molar heat capacity at constant pressure: 265 ± 1.3 J/K/mol
244.52 K, Crystal, Vacuum adiabatic calorimetry
  molar heat capacity at constant pressure: 198.49 ± 0.4 J/K/mol
244.94 K, Crystal, Vacuum adiabatic calorimetry
  molar heat capacity at constant pressure: 198.95 ± 0.4 J/K/mol
245.29 K, Metastable crystal, Small (less than 1 g) adiabatic calorimetry
  molar heat capacity at constant pressure: 199.04 ± 1 J/K/mol
245.35 K, Liquid, Small (less than 1 g) adiabatic calorimetry
  molar heat capacity at constant pressure: 265.6 ± 1.3 J/K/mol
245.89 K, Crystal, Vacuum adiabatic calorimetry
  molar heat capacity at constant pressure: 199.57 ± 0.4 J/K/mol
246.52 K, Liquid, Small (less than 1 g) adiabatic calorimetry
  molar heat capacity at constant pressure: 265.56 ± 1.3 J/K/mol
246.54 K, Liquid, Small (less than 1 g) adiabatic calorimetry
  molar heat capacity at constant pressure: 266.09 ± 1.3 J/K/mol
247.02 K, Crystal, Vacuum adiabatic calorimetry
  molar heat capacity at constant pressure: 200.86 ± 0.4 J/K/mol
247.27 K, Crystal, Vacuum adiabatic calorimetry
  molar heat capacity at constant pressure: 200.82 ± 0.4 J/K/mol
247.37 K, Liquid, Small (less than 1 g) adiabatic calorimetry
  molar heat capacity at constant pressure: 266.15 ± 1.3 J/K/mol
247.66 K, Metastable crystal, Small (less than 1 g) adiabatic calorimetry
  molar heat capacity at constant pressure: 201.1 ± 1 J/K/mol
248.62 K, Liquid, Small (less than 1 g) adiabatic calorimetry
  molar heat capacity at constant pressure: 266.07 ± 1.3 J/K/mol
248.65 K, Crystal, Vacuum adiabatic calorimetry
  molar heat capacity at constant pressure: 202.17 ± 0.4 J/K/mol
248.84 K, Liquid, Small (less than 1 g) adiabatic calorimetry
  molar heat capacity at constant pressure: 267.47 ± 1.3 J/K/mol
249.1 K, Crystal, Vacuum adiabatic calorimetry
  molar heat capacity at constant pressure: 202.81 ± 0.4 J/K/mol
249.39 K, Liquid, Small (less than 1 g) adiabatic calorimetry
  molar heat capacity at constant pressure: 266.73 ± 1.3 J/K/mol
250.02 K, Crystal, Vacuum adiabatic calorimetry
  molar heat capacity at constant pressure: 203.57 ± 0.4 J/K/mol
250.02 K, Metastable crystal, Small (less than 1 g) adiabatic calorimetry
  molar heat capacity at constant pressure: 203.18 ± 1 J/K/mol
250.73 K, Liquid, Small (less than 1 g) adiabatic calorimetry
  molar heat capacity at constant pressure: 266.58 ± 1.3 J/K/mol
251.18 K, Crystal, Vacuum adiabatic calorimetry
  molar heat capacity at constant pressure: 204.9 ± 0.41 J/K/mol
251.4 K, Crystal, Vacuum adiabatic calorimetry
  molar heat capacity at constant pressure: 204.98 ± 0.41 J/K/mol
251.41 K, Liquid, Small (less than 1 g) adiabatic calorimetry
  molar heat capacity at constant pressure: 267.3 ± 1.3 J/K/mol
251.54 K, Crystal, Vacuum adiabatic calorimetry
  molar heat capacity at constant pressure: 205.96 ± 0.41 J/K/mol
252.37 K, Metastable crystal, Small (less than 1 g) adiabatic calorimetry
  molar heat capacity at constant pressure: 205.32 ± 1 J/K/mol
252.77 K, Crystal, Vacuum adiabatic calorimetry
  molar heat capacity at constant pressure: 206.43 ± 0.41 J/K/mol
252.83 K, Liquid, Small (less than 1 g) adiabatic calorimetry
  molar heat capacity at constant pressure: 267.16 ± 1.3 J/K/mol
253.26 K, Crystal, Vacuum adiabatic calorimetry
  molar heat capacity at constant pressure: 207.11 ± 0.41 J/K/mol
253.43 K, Liquid, Small (less than 1 g) adiabatic calorimetry
  molar heat capacity at constant pressure: 267.81 ± 1.3 J/K/mol
254.71 K, Metastable crystal, Small (less than 1 g) adiabatic calorimetry
  molar heat capacity at constant pressure: 207.8 ± 1 J/K/mol
254.93 K, Liquid, Small (less than 1 g) adiabatic calorimetry
  molar heat capacity at constant pressure: 267.63 ± 1.3 J/K/mol
255.35 K, Crystal, Vacuum adiabatic calorimetry
  molar heat capacity at constant pressure: 209.48 ± 0.41 J/K/mol
255.45 K, Liquid, Small (less than 1 g) adiabatic calorimetry
  molar heat capacity at constant pressure: 268.35 ± 1.3 J/K/mol
257.03 K, Liquid, Small (less than 1 g) adiabatic calorimetry
  molar heat capacity at constant pressure: 268.27 ± 1.3 J/K/mol
257.05 K, Metastable crystal, Small (less than 1 g) adiabatic calorimetry
  molar heat capacity at constant pressure: 210.12 ± 1 J/K/mol
257.43 K, Crystal, Vacuum adiabatic calorimetry
  molar heat capacity at constant pressure: 211.8 ± 0.41 J/K/mol
257.47 K, Liquid, Small (less than 1 g) adiabatic calorimetry
  molar heat capacity at constant pressure: 268.84 ± 1.3 J/K/mol
259.14 K, Liquid, Small (less than 1 g) adiabatic calorimetry
  molar heat capacity at constant pressure: 268.9 ± 1.3 J/K/mol
259.38 K, Metastable crystal, Small (less than 1 g) adiabatic calorimetry
  molar heat capacity at constant pressure: 212.62 ± 1 J/K/mol
259.49 K, Liquid, Small (less than 1 g) adiabatic calorimetry
  molar heat capacity at constant pressure: 269.39 ± 1.3 J/K/mol
259.52 K, Crystal, Vacuum adiabatic calorimetry
  molar heat capacity at constant pressure: 214.55 ± 0.41 J/K/mol
260.55 K, Crystal, Vacuum adiabatic calorimetry
  molar heat capacity at constant pressure: 216.79 ± 0.41 J/K/mol
261.24 K, Liquid, Small (less than 1 g) adiabatic calorimetry
  molar heat capacity at constant pressure: 269.33 ± 1.3 J/K/mol
261.52 K, Liquid, Small (less than 1 g) adiabatic calorimetry
  molar heat capacity at constant pressure: 269.97 ± 1.3 J/K/mol
261.6 K, Crystal, Vacuum adiabatic calorimetry
  molar heat capacity at constant pressure: 217.5 ± 0.41 J/K/mol
261.65 K, Liquid, Small (less than 1 g) adiabatic calorimetry
  molar heat capacity at constant pressure: 270.17 ± 1.3 J/K/mol
261.69 K, Metastable crystal, Small (less than 1 g) adiabatic calorimetry
  molar heat capacity at constant pressure: 215.45 ± 1.1 J/K/mol
263.34 K, Liquid, Small (less than 1 g) adiabatic calorimetry
  molar heat capacity at constant pressure: 269.95 ± 1.3 J/K/mol
263.54 K, Liquid, Small (less than 1 g) adiabatic calorimetry
  molar heat capacity at constant pressure: 270.5 ± 1.3 J/K/mol
263.69 K, Crystal, Vacuum adiabatic calorimetry
  molar heat capacity at constant pressure: 220.52 ± 0.43 J/K/mol
263.7 K, Liquid, Small (less than 1 g) adiabatic calorimetry
  molar heat capacity at constant pressure: 270.42 ± 1.3 J/K/mol
264 K, Metastable crystal, Small (less than 1 g) adiabatic calorimetry
  molar heat capacity at constant pressure: 218.39 ± 1.1 J/K/mol
265.44 K, Liquid, Small (less than 1 g) adiabatic calorimetry
  molar heat capacity at constant pressure: 270.58 ± 1.3 J/K/mol
265.56 K, Liquid, Small (less than 1 g) adiabatic calorimetry
  molar heat capacity at constant pressure: 271.1 ± 1.3 J/K/mol
265.73 K, Liquid, Small (less than 1 g) adiabatic calorimetry
  molar heat capacity at constant pressure: 270.91 ± 1.3 J/K/mol
265.77 K, Crystal, Vacuum adiabatic calorimetry
  molar heat capacity at constant pressure: 223.78 ± 0.43 J/K/mol
266.29 K, Metastable crystal, Small (less than 1 g) adiabatic calorimetry
  molar heat capacity at constant pressure: 221.46 ± 1.1 J/K/mol
267.55 K, Liquid, Small (less than 1 g) adiabatic calorimetry
  molar heat capacity at constant pressure: 271.24 ± 1.3 J/K/mol
267.58 K, Liquid, Small (less than 1 g) adiabatic calorimetry
  molar heat capacity at constant pressure: 271.73 ± 1.3 J/K/mol
267.75 K, Liquid, Small (less than 1 g) adiabatic calorimetry
  molar heat capacity at constant pressure: 271.67 ± 1.3 J/K/mol
267.85 K, Crystal, Vacuum adiabatic calorimetry
  molar heat capacity at constant pressure: 227.51 ± 0.43 J/K/mol
268.56 K, Metastable crystal, Small (less than 1 g) adiabatic calorimetry
  molar heat capacity at constant pressure: 224.85 ± 1.1 J/K/mol
269.36 K, Crystal, Vacuum adiabatic calorimetry
  molar heat capacity at constant pressure: 231.51 ± 0.43 J/K/mol
269.61 K, Liquid, Small (less than 1 g) adiabatic calorimetry
  molar heat capacity at constant pressure: 272.26 ± 1.3 J/K/mol
269.67 K, Liquid, Small (less than 1 g) adiabatic calorimetry
  molar heat capacity at constant pressure: 271.61 ± 1.3 J/K/mol
269.77 K, Liquid, Small (less than 1 g) adiabatic calorimetry
  molar heat capacity at constant pressure: 272.2 ± 1.3 J/K/mol
269.93 K, Crystal, Vacuum adiabatic calorimetry
  molar heat capacity at constant pressure: 231.49 ± 0.43 J/K/mol
